From patent US11897862B2 (Gilead Sciences, Inc., priority 2022, dated 2024) come the findings set out here.

The target of assay [1] is IKZF2 (Homo sapiens, UniProt Q96SW2+Q9UKS7). As to the kind of experiment: HEK293 HiBiT in vitro degradation of IKZF2. The arrangement: expressed in transfected cells. As to conditions: for Dmax: HEK293, HEK293 HiBiT, maximum degradation at the highest concentration tested; for DC50: HEK293 HiBiT, 18-24 hr incubation, normalized to DMSO control, read-out: IKZF2 EC50. It counts as cell-based. In short, it runs like this:
(§1)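 Cellular target level is measured as luminescence from an 11-residue HiBiT tag fused via a linker to the C-terminus of IKZF1, IKZF2 or SALL4 in stable Flp-In T-REx HEK293 pools. Reporter expression is induced overnight with doxycycline ([…] final), and compounds act for 18-24 h before lytic detection.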
Background: With HiBiT, luminescence reflects the tagged protein that the partner subunit can reach.

In assay [2] the target is T1, IKZF1 (Homo sapiens, UniProt Q13422+Q96SW2).
T1 construct: expressed in transfected cells
As to the kind of experiment: HEK293 HiBiT in vitro degradation of IKZF1. It counts as cell-based. The settings on record: for Dmax: HEK293, HEK293 HiBiT, maximum degradation at the highest concentration tested; for DC50: HEK293 HiBiT, 18-24 hr incubation, normalized to DMSO control, read-out: IKZF1 EC50. The method, boiled down: as §1

Sequence of IKZF2 (Q9UKS7 1-500 isoform Q9UKS7-2): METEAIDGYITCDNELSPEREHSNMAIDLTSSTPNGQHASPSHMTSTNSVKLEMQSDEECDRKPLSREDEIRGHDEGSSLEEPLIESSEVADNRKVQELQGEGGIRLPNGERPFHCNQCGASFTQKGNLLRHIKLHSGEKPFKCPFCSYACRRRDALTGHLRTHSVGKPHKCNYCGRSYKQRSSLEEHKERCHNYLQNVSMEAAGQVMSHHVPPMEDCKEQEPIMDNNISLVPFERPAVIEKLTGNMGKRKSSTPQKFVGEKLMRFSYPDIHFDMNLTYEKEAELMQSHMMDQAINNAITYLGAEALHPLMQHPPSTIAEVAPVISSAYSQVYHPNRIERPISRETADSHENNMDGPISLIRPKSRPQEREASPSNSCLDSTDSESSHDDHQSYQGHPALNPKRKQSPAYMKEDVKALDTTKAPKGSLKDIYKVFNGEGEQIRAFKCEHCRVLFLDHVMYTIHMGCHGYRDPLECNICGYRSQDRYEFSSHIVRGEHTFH
Sequence of IKZF2 (Q96SW2 whole entry, the tested form may be a part): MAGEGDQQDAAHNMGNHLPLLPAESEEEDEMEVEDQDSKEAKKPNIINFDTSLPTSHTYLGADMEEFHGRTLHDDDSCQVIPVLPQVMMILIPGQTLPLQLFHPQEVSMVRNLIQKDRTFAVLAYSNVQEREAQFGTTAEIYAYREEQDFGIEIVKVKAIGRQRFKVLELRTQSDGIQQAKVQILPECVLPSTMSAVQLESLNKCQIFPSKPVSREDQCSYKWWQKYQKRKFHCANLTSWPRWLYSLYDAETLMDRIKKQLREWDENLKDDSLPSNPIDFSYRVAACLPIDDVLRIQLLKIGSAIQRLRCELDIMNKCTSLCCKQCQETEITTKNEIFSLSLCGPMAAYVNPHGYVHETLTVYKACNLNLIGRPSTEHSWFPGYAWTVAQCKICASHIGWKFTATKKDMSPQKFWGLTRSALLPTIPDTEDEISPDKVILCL
Sequence of IKZF2 (Q16531 whole entry partner, the tested form may be a part): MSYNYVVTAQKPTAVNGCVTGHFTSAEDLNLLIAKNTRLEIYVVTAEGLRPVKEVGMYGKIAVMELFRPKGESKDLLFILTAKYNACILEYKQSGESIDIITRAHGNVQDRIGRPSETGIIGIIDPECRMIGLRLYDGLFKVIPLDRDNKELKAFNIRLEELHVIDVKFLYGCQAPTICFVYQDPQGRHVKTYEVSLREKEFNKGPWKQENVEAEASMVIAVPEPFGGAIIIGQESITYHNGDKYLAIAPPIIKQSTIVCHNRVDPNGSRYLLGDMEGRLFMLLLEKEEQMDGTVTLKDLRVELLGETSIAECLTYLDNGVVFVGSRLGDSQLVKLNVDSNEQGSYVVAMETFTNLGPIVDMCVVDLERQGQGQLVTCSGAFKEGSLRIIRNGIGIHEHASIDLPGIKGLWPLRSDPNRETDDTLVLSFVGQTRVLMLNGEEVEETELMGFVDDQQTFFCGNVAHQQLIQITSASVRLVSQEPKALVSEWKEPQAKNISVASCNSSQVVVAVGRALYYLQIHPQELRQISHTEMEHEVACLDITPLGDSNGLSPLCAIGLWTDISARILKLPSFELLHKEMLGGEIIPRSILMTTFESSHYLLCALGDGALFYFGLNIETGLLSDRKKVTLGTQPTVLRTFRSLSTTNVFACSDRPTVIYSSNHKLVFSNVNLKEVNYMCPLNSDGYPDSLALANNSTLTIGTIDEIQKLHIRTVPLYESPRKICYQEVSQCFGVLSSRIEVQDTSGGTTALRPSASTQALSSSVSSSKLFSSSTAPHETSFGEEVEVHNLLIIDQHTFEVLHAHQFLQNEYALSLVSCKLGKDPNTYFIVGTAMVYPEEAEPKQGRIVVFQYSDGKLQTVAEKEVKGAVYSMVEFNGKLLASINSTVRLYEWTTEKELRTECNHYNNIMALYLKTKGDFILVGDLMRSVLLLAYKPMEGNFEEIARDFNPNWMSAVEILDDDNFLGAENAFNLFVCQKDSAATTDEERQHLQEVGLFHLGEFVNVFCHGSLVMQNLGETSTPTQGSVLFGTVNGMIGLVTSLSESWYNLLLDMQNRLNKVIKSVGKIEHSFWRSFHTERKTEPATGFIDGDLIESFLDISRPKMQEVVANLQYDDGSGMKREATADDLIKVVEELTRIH
T1 sequence (Q13422 whole entry): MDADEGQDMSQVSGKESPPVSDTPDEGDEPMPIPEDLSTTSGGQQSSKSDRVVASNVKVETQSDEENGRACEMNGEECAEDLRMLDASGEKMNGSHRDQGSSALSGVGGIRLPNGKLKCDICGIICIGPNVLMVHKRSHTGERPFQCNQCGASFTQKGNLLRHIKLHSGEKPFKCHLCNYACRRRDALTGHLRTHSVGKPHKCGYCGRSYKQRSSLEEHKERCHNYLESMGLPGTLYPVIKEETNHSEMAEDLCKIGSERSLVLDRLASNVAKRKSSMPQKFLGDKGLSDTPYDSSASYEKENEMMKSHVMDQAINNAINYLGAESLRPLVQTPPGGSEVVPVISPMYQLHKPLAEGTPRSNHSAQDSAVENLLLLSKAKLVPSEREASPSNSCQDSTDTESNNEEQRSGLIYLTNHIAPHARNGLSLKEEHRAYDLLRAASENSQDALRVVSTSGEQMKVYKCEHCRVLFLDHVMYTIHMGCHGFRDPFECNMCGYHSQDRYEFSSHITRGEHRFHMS
T1 sequence (Q96SW2 whole entry): as the sequence (Q96SW2 whole entry, the tested form may be a part) above
T1 sequence (Q16531 whole entry partner): as the sequence (Q16531 whole entry partner, the tested form may be a part) above

Regarding `O=C1CCC(N2Cc3c(ccc(C[C@H]4CCCC[C@@H]4NCC4CC(F)(F)C4)c3F)C2=O)C(=O)N1` (stereo partly drawn) [Example 81, 3-(5-(((1R,2S)-2-(((3,3-difluorocyclobutyl)methyl)amino)cyclohexyl)methyl)-4-fluoro-1-oxoisoindolin-2-yl)piperidine-2,6-dione], in assay [1], the Dmax (commonly the largest share of the target that was removed) came to 96% and the DC50 was found to be 4 nM. Also, in assay [2], the Dmax is 41% and the DC50 worked out at 28 nM.
As for `O=C1CCC(N2Cc3cc(C[C@H]4CCCC[C@@H]4NCC45CCC(CC4)CC5)ccc3C2=O)C(=O)N1` (stereo partly drawn) [Example 83, 3-(5-(((1R,2S)-2-((bicyclo[2.2.2]octan-1-ylmethyl)amino)cyclohexyl)methyl)-1-oxoisoindolin-2-yl)piperidine-2,6-dione], in assay [1], the Dmax is 92% and the DC50 was 37 nM. The DC50 in assay [2] was greater than 1000 nM.
Turning to `O=C1CCC(N2Cc3cc(C[C@H]4CCCC[C@@H]4NC4CCC5(CC4)COC5)ccc3C2=O)C(=O)N1` (stereo partly drawn) [Example 86, 3-(5-(((1R,2S)-2-((2-oxaspiro[3.5]nonan-7-yl)amino)cyclohexyl)methyl)-1-oxoisoindolin-2-yl)piperidine-2,6-dione], in assay [1], the Dmax stood at 97% and the DC50 is 12 nM. Also, in assay [2], the Dmax came out at 34% and the DC50 is 141 nM.
On the same counts, the results for `O=C1CCC(N2Cc3c(ccc(C[C@H]4CCCC[C@@H]4NC4CCCCC4)c3F)C2=O)C(=O)N1` (stereo partly drawn) [Example 88, 3-(5-(((1R,2S)-2-(cyclohexylamino)cyclohexyl)methyl)-4-fluoro-1-oxoisoindolin-2-yl)piperidine-2,6-dione] are 99%, 1 nM, 38% and 101 nM.
In the case of `CC(C)(C)CCN(CCC(C)(C)C)[C@H]1CCCC[C@@H]1Cc1ccc2c(c1F)CN(C1CCC(=O)NC1=O)C2=O` (stereo partly drawn) [Example 90, 3-(5-(((1R,2S)-2-(bis(3,3-dimethylbutyl)amino)cyclohexyl)methyl)-4-fluoro-1-oxoisoindolin-2-yl)piperidine-2,6-dione], in assay [1], the Dmax came to 75% and the DC50 was found to be 69 nM. Also, the DC50 in assay [2] is greater than 1000 nM.
As for `O=C1CCC(N2Cc3cc(C[C@H]4CCCC[C@@H]4NC4CCS(=O)(=O)CC4)ccc3C2=O)C(=O)N1` (stereo partly drawn) [Example 91, 3-(5-(((1R,2S)-2-((1,1-dioxidotetrahydro-2H-thiopyran-4-yl)amino)cyclohexyl)methyl)-1-oxoisoindolin-2-yl)piperidine-2,6-dione], the Dmax in assay [1] is 97%; in assay [2] it was 47%. Also, the DC50 in assay [1] came out at 17 nM; in assay [2] it was 160 nM.
For `O=C1CCC(N2Cc3cc(C[C@H]4OCCC[C@@H]4NC4CCC(F)(F)CC4)ccc3C2=O)C(=O)N1` (stereo partly drawn) [Example 92, 3-(5-(((2R,3S)-3-((4,4-difluorocyclohexyl)amino)tetrahydro-2H-pyran-2-yl)methyl)-1-oxoisoindolin-2-yl)piperidine-2,6-dione], the Dmax in assay [1] came to 82%. The DC50 was 44 nM in assay [1] and greater than 1000 nM in assay [2].
On to `O=C1CCC(N2Cc3cc(C[C@H]4CCCC[C@@H]4NCCc4ccccc4)ccc3C2=O)C(=O)N1` (stereo partly drawn) [Example 93, 3-(1-oxo-5-(((1R,2S)-2-(phenethylamino)cyclohexyl)methyl)isoindolin-2-yl)piperidine-2,6-dione], for which the Dmax in assay [1] came out at 91%; in assay [2] it was 22%. The DC50 in assay [1] was found to be 23 nM; in assay [2], 39 nM.
Consider `O=C1CCC(N2Cc3c(ccc(C[C@H]4CCCC[C@@H]4NCC45CC(C4)C5)c3F)C2=O)C(=O)N1` (stereo partly shown) [Example 96], for which the values for the Dmax in assay [1] and in assay [2] were 95% and 35%, respectively. The DC50 in assay [1] amounted to 9 nM; in assay [2], 173 nM.
Take `O=C1CCC(N2Cc3c(ccc(C[C@H]4CCCC[C@@H]4NCC4CCC(F)(F)CC4)c3F)C2=O)C(=O)N1` (stereo partly shown) [Example 99]: in assay [1], the Dmax stood at 94% and the DC50 is 14 nM. In assay [2], the Dmax came out at 37% and the DC50 was determined as 68 nM.
